This is an account of results in ChEMBL document CHEMBL2401631, “Small molecules inhibit the interaction of Nrf2 and the Keap1 Kelch domain through a non-covalent mechanism” (Bioorg Med Chem, 2013).

Structures are written as SMILES. Calls of active or inactive are those of the source. The calls are words filed in the database; no cut-off is given here.

Holding throughout (type): cell-based
The target of test [1] is Kelch-like ECH-associated protein 1 (Homo sapiens) (UniProt Q14145). Kind of test: Binding affinity to human recombinant Kelch-DC domain of Keap1 (321 to 609) expressed in HEK293T cells assessed as covalent adduct formation with cysteines at 1 mM after 15 hrs by 2D-FIDA assay. Conditions: HEK-293T.
Sequence of Kelch-like ECH-associated protein 1 (Homo sapiens) (Q14145 whole entry, the tested form may be a part): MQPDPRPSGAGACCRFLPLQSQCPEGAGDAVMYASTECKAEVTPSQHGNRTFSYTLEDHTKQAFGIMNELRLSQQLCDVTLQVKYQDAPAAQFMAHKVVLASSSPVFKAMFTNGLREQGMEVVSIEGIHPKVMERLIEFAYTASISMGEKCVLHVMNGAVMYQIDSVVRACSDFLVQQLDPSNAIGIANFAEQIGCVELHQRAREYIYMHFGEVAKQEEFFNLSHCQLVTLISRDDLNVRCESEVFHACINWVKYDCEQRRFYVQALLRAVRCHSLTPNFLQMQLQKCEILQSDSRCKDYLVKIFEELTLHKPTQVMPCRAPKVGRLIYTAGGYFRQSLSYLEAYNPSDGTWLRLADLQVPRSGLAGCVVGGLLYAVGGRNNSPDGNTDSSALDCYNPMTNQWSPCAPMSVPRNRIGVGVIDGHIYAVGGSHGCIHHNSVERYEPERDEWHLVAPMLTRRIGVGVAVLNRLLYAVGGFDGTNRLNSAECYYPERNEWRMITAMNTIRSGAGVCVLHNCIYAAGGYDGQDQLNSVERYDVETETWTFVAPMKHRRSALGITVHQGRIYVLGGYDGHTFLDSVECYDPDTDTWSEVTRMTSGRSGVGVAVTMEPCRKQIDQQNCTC
In test [2] the target is T1, Nuclear factor erythroid 2-related factor 2 (Homo sapiens) (UniProt Q16236).
T1 sequence (whole entry): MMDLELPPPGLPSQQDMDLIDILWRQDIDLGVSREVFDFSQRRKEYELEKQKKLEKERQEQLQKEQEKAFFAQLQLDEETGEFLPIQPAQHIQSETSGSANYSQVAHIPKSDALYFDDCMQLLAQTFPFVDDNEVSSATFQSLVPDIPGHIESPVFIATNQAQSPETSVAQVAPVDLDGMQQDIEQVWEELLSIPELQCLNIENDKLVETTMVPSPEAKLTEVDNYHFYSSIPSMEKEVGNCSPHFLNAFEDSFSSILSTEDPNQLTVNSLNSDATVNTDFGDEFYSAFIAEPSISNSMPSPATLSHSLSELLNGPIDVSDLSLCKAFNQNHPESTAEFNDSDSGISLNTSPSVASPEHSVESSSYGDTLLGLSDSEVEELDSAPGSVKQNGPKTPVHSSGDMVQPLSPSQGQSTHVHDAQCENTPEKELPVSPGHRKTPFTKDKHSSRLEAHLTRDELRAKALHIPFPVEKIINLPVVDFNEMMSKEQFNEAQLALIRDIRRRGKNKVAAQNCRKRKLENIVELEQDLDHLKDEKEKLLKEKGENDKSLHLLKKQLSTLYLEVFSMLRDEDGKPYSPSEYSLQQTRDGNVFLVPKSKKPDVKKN
The test is described as follows: Activation of Nrf2 in human DLD1 cells after 24 to 48 hrs by luciferase reporter gene assay. As to conditions: DLD-1.

The target of test [3] is T1, Nuclear factor erythroid 2-related factor 2 (Homo sapiens). Kind of test: Activation of Nrf2 in human DLD1 cells assessed as stabilization of Nrf2 protein at 20 uM after 48 hrs by Western blot analysis. Conditions: DLD-1. In general terms: Immunoblotting shows a protein as a band on a membrane.
For test [4] the target is unchanged. Kind of test: Activation of Nrf2 in human DLD1 cells assessed as increase of NQO1 protein level at 20 uM after 48 hrs by Western blot analysis. Conditions: DLD-1.

With `COC(=O)/C=C/C(=O)OC`, the outcome in test [1], in test [3] and in test [4] was Active. Besides, in test [2], the Activity entry was “Dose-dependent effect”.
As for `COc1ccc(S(=O)(=O)Nc2ccc(NS(=O)(=O)c3ccc(OC)cc3)c3ccccc23)cc1`, the outcome in test [1] was inactive. Further, the Activity entry in test [2] was “Dose-dependent effect”. Further, the outcome in test [3] and in test [4] was Active.
Regarding `COC(=O)/C=C/C(=O)O`, the Activity entry in test [2] was “Dose-dependent effect”.
